Experimental data: the CheMixHub ionic liquid set
± gives the uncertainty stated by the source.

Assay: xn = mol fraction of the nth substance listed

CC(=O)[O-].Cn1cc[nH+]c1 + CCO
293.15 K, 101.3 kPa
Settings	electrical conductivity [S/m]
x2 = 0	0.326 ± 0.001
x2 = 0.9371	0.448 ± 0.001

CCOS(=O)(=O)[O-].CC[n+]1ccn(C)c1 + CCO
298.15 K, 101 kPa
Settings	viscosity [mPa·s]
x2 = 0.2187	47.7 ± 1.3
x2 = 0.7508	5.08 ± 0.12
x2 = 0.7866	4.31 ± 0.1

CC[N+]1(C)CCCC1.COP(=O)([O-])OC + CCO
100 kPa
Settings	viscosity [mPa·s]
293.15 K, x1 = 0.0534	2.2 ± 0.13
293.15 K, x1 = 0.1535	5.03 ± 0.3
298.15 K, x1 = 0.1535	4.5 ± 0.27
298.15 K, x1 = 0.306	11.71 ± 0.71
303.15 K, x1 = 0.1535	4.05 ± 0.24
303.15 K, x1 = 1	123.5 ± 7.8
308.15 K, x1 = 0.5052	20.8 ± 1.3
308.15 K, x1 = 0.6938	40.6 ± 2.5
308.15 K, x1 = 1	93.5 ± 5.8
318.15 K, x1 = 0.1054	2.13 ± 0.13
323.15 K, x1 = 0.0534	1.37 ± 0.08
323.15 K, x1 = 0.1535	2.82 ± 0.17
323.15 K, x1 = 0.2015	3.64 ± 0.22
323.15 K, x1 = 0.6938	22.8 ± 1.4
323.15 K, x1 = 0.8049	30.6 ± 1.9
328.15 K, x1 = 0.1054	1.84 ± 0.11
328.15 K, x1 = 0.2015	3.34 ± 0.2
328.15 K, x1 = 0.6022	14.74 ± 0.89
328.15 K, x1 = 0.8049	24.8 ± 1.5
333.15 K, x1 = 0.2015	3.05 ± 0.18
338.15 K, x1 = 0.0534	1.1 ± 0.07
338.15 K, x1 = 0.9073	20.5 ± 1.3
338.15 K, x1 = 1	24 ± 1.5

CC[n+]1ccn(CCOC)c1.N#C[S-] + CCO
100 kPa
Settings	viscosity [mPa·s]
293.15 K, x1 = 0.1	2.15 ± 0.12
293.15 K, x1 = 0.3995	8.78 ± 0.49
293.15 K, x1 = 0.6	20 ± 1.1
293.15 K, x1 = 0.797	42.3 ± 2.4
298.15 K, x1 = 0.3002	4.94 ± 0.28
303.15 K, x1 = 0.3002	4.39 ± 0.25
303.15 K, x1 = 0.8964	35.9 ± 2
303.15 K, x1 = 1	44.3 ± 2.4
308.15 K, x1 = 0.1999	2.58 ± 0.14
308.15 K, x1 = 0.7	16.96 ± 0.94
308.15 K, x1 = 0.797	23.4 ± 1.3
308.15 K, x1 = 0.8964	29.6 ± 1.6
308.15 K, x1 = 1	36 ± 2
313.15 K, x1 = 0.3995	5.28 ± 0.29
313.15 K, x1 = 0.797	19.8 ± 1.1
318.15 K, x1 = 0.1999	2.14 ± 0.12

CCOS(=O)(=O)[O-].CC[n+]1ccn(C)c1 + CCO + CCOC(C)(C)C
298.15 K, 101 kPa
Settings	viscosity [mPa·s]
x2 = 0, x3 = 0	100.4 ± 5.5
x2 = 0.1271, x3 = 0	65.5 ± 2
x2 = 0.1281, x3 = 0	66.1 ± 2
x2 = 0.2039, x3 = 0	49.8 ± 1.4
x2 = 0.2187, x3 = 0	47.7 ± 1.3
x2 = 0.3088, x3 = 0	34.69 ± 0.88
x2 = 0.3256, x3 = 0	32.21 ± 0.81
x2 = 0.3598, x3 = 0	28.75 ± 0.71
x2 = 0.4147, x3 = 0	22.88 ± 0.55
x2 = 0.4336, x3 = 0	21.39 ± 0.5
x2 = 0.4604, x3 = 0	18.98 ± 0.44
x2 = 0.5103, x3 = 0	15.4 ± 0.35
x2 = 0.5223, x3 = 0	14.78 ± 0.34
x2 = 0.5724, x3 = 0	11.74 ± 0.26
x2 = 0.5926, x3 = 0	10.83 ± 0.24
x2 = 0.5951, x3 = 0	10.65 ± 0.24
x2 = 0.712, x3 = 0	6.13 ± 0.14
x2 = 0.7174, x3 = 0	5.98 ± 0.14
x2 = 0.7508, x3 = 0	5.08 ± 0.12
x2 = 0.7676, x3 = 0	4.68 ± 0.11
x2 = 0.7866, x3 = 0	4.31 ± 0.1
x2 = 0.806, x3 = 0	3.86 ± 0.089
x2 = 0.8666, x3 = 0	2.709 ± 0.063
x2 = 0.9026, x3 = 0	2.189 ± 0.051
x2 = 0.9062, x3 = 0	2.138 ± 0.05
x2 = 0.9504, x3 = 0	1.628 ± 0.039
x2 = 0.9522, x3 = 0	1.589 ± 0.038

CCOS(=O)(=O)[O-].CC[n+]1ccn(C)c1 + CCO + O
298.15 K, 101 kPa
Settings	viscosity [mPa·s]
x2 = 0.0425, x3 = 0.9493	1.473 ± 0.015
x2 = 0.0462, x3 = 0.9365	1.767 ± 0.016
x2 = 0.054, x3 = 0.9172	2.239 ± 0.017
x2 = 0.0603, x3 = 0.8923	2.787 ± 0.02
x2 = 0.0723, x3 = 0.8613	3.311 ± 0.023
x2 = 0.0829, x3 = 0.8208	4.237 ± 0.029
x2 = 0.0885, x3 = 0.9037	2.015 ± 0.016
x2 = 0.0898, x3 = 0.1724	43.71 ± 0.84
x2 = 0.0906, x3 = 0.3653	26.4 ± 0.39
x2 = 0.1018, x3 = 0.8819	2.162 ± 0.017
x2 = 0.1162, x3 = 0.8569	2.603 ± 0.019
x2 = 0.1307, x3 = 0.8254	2.848 ± 0.02
x2 = 0.1473, x3 = 0.8454	2.302 ± 0.018
x2 = 0.1532, x3 = 0.7862	3.265 ± 0.022
x2 = 0.1618, x3 = 0.823	2.558 ± 0.019
x2 = 0.1776, x3 = 0.736	3.981 ± 0.027
x2 = 0.1798, x3 = 0.7952	2.666 ± 0.019
x2 = 0.1867, x3 = 0.3267	19.71 ± 0.27
x2 = 0.203, x3 = 0.4762	11.23 ± 0.11
x2 = 0.2036, x3 = 0.7562	3.061 ± 0.022
x2 = 0.213, x3 = 0.6721	4.695 ± 0.034
x2 = 0.2156, x3 = 0.7777	2.443 ± 0.018
x2 = 0.2354, x3 = 0.7098	3.148 ± 0.022
x2 = 0.2358, x3 = 0.7503	2.537 ± 0.019
x2 = 0.2581, x3 = 0.7192	2.751 ± 0.02
x2 = 0.2884, x3 = 0.6757	2.836 ± 0.022
x2 = 0.2972, x3 = 0.6968	2.342 ± 0.019
x2 = 0.3097, x3 = 0.4125	8.578 ± 0.08
x2 = 0.3172, x3 = 0.5831	4.026 ± 0.031
x2 = 0.3196, x3 = 0.668	2.391 ± 0.02
x2 = 0.3235, x3 = 0.6281	3.109 ± 0.023
x2 = 0.3439, x3 = 0.6361	2.653 ± 0.02
x2 = 0.3528, x3 = 0.1226	18.65 ± 0.27
x2 = 0.354, x3 = 0.5781	3.217 ± 0.024
x2 = 0.3804, x3 = 0.5884	2.55 ± 0.021
x2 = 0.3862, x3 = 0.6086	2.334 ± 0.018
x2 = 0.4044, x3 = 0.3559	6.856 ± 0.061
x2 = 0.4138, x3 = 0.5756	2.347 ± 0.02
x2 = 0.4195, x3 = 0.5389	2.799 ± 0.023
x2 = 0.4403, x3 = 0.5426	2.299 ± 0.021
x2 = 0.4582, x3 = 0.4849	2.967 ± 0.024
x2 = 0.4657, x3 = 0.1012	12.87 ± 0.16
x2 = 0.4793, x3 = 0.4944	2.444 ± 0.023
x2 = 0.4911, x3 = 0.5046	2.027 ± 0.02
x2 = 0.521, x3 = 0.4447	2.385 ± 0.02
x2 = 0.5486, x3 = 0.4376	2.109 ± 0.018
x2 = 0.5636, x3 = 0.3905	2.443 ± 0.022
x2 = 0.6042, x3 = 0.159	5.533 ± 0.048
x2 = 0.6339, x3 = 0.3399	1.976 ± 0.017
x2 = 0.6484, x3 = 0.2101	3.5 ± 0.027
x2 = 0.6523, x3 = 0.3414	1.735 ± 0.016
x2 = 0.6548, x3 = 0.0654	6.067 ± 0.057
x2 = 0.6675, x3 = 0.2976	2.007 ± 0.017
x2 = 0.7086, x3 = 0.2767	1.737 ± 0.016
x2 = 0.7178, x3 = 0.241	2.045 ± 0.017
x2 = 0.7723, x3 = 0.2038	1.728 ± 0.016
x2 = 0.8545, x3 = 0.0276	2.451 ± 0.02
x2 = 0.8653, x3 = 0.125	1.406 ± 0.015
x2 = 0.9072, x3 = 0.0792	1.343 ± 0.014
x2 = 0.9667, x3 = 0.0134	1.317 ± 0.014

CCCC[n+]1ccn(C)c1C.F[B-](F)(F)F + CC[N+](C)(CC)CCOC.F[B-](F)(F)F
100 kPa, x2 = 0
Settings	electrical conductivity [S/m]
333.15 K	0.335 ± 0.02
338.15 K	0.447 ± 0.027
343.15 K	0.53 ± 0.032
348.15 K	0.63 ± 0.038

CCCCn1cc[n+](CCOCCOCCOCC[n+]2ccn(CCCC)c2)c1.O=S(=O)([N-]S(=O)(=O)C(F)(F)F)C(F)(F)F.O=S(=O)([N-]S(=O)(=O)C(F)(F)F)C(F)(F)F + CC[n+]1ccn(C)c1.N#C[N-]C#N + O=S(=O)([N-]S(=O)(=O)C(F)(F)F)C(F)(F)F.[Li+]
100 kPa, x1 = 0.1386, x2 = 0.7575
Settings	electrical conductivity [S/m]
298 K	0.61 ± 0.024
303 K	0.773 ± 0.031
313 K	0.902 ± 0.036
323 K	1.18 ± 0.047
333 K	1.51 ± 0.06
344 K	1.89 ± 0.076

CCOS(=O)(=O)[O-].CC[n+]1ccn(C)c1 + CC[n+]1ccn(C)c1.N#C[S-]
Settings	viscosity [mPa·s]
353.15 K, 100 kPa, x2 = 0	15 ± 0.62

CCOS(=O)(=O)[O-].CC[n+]1ccn(C)c1 + CC[n+]1ccn(C)c1.O=S(=O)([N-]S(=O)(=O)C(F)(F)F)C(F)(F)F
Settings	viscosity [mPa·s]
298.15 K, 100 kPa, x2 = 0	100.6 ± 1.8

[I-].[Li+] + CC[n+]1ccn(C)c1.O=S(=O)([N-]S(=O)(=O)C(F)(F)F)C(F)(F)F
electrical conductivity [S/m], 101 kPa
Settings	x2 = 0.8099	x2 = 0.8475	x2 = 0.8826	x2 = 0.9207	x2 = 0.9587
288.15 K	–	0.225 ± 0.023	0.294 ± 0.03	0.385 ± 0.039	0.497 ± 0.05
298.15 K	0.286 ± 0.029	0.376 ± 0.038	0.473 ± 0.048	0.602 ± 0.06	0.744 ± 0.075
333.15 K	1.06 ± 0.11	1.25 ± 0.12	1.43 ± 0.14	1.66 ± 0.17	1.94 ± 0.19

[I-].[Li+] + CC[n+]1ccn(C)c1.O=S(=O)([O-])C(F)(F)F
electrical conductivity [S/m], 101 kPa
Settings	288.15 K	298.15 K	333.15 K
x1 = 0.007746	0.575 ± 0.058	0.843 ± 0.085	2.22 ± 0.22
x1 = 0.01537	0.548 ± 0.055	0.817 ± 0.082	2.15 ± 0.21
x2 = 0.9746	0.556 ± 0.056	0.827 ± 0.083	2.17 ± 0.22

NCCOCCO + CN1CCCC1=O + CCCC[n+]1ccn(C)c1.O=S(=O)([N-]S(=O)(=O)C(F)(F)F)C(F)(F)F
viscosity [mPa·s], 101 kPa
Settings	293.15 K	298.15 K	303.15 K	308.15 K	313.15 K	318.15 K	323.15 K	328.15 K	333.15 K
x1 = 0.2949, x2 = 0.6792	5.359 ± 0.059	4.682 ± 0.051	4.146 ± 0.045	3.69 ± 0.039	3.316 ± 0.035	3.017 ± 0.032	2.747 ± 0.029	2.523 ± 0.026	2.335 ± 0.024
x1 = 0.3615, x2 = 0.5637	8.078 ± 0.085	6.927 ± 0.073	6.008 ± 0.063	5.26 ± 0.055	4.651 ± 0.049	4.139 ± 0.044	3.714 ± 0.039	3.359 ± 0.035	3.062 ± 0.032
x1 = 0.4113, x2 = 0.453	12.21 ± 0.2	10.27 ± 0.17	8.74 ± 0.15	7.52 ± 0.12	6.54 ± 0.11	5.736 ± 0.09	5.069 ± 0.078	4.517 ± 0.068	4.053 ± 0.053

CC(=O)[O-].Cn1cc[nH+]c1 + COS(=O)(=O)[O-].Cn1cc[n+](C)c1
298.15 K, 100 kPa
Settings	viscosity [mPa·s]
x1 = 0.1	90.2 ± 2.3
x1 = 0.19	77.2 ± 1.8
x1 = 0.31	56.3 ± 1.3
x1 = 0.4	40.7 ± 0.9
x1 = 0.5	35.3 ± 0.8
x1 = 0.59	27.7 ± 0.6
